From patent publication EP1388013B1, “COMPOSITIONS AND METHODS FOR THE USE OF FIBRONECTIN FRAGMENTS IN THE DIAGNOSIS OF CANCER” (THE REGENTS OF THE UNIVERSITY OF MICHIGAN, priority 2001, dated 2002)
No end group written: not given here.

Tests used:
[1] = tested on: normal human prostate epithelial cells; experiment: SU-ECM invasion assay, normal prostate epithelial cells; type: cell-based; conditions: SU-ECM, serum containing environment; Figure 12
Description: (§1) Adult Strongylocentrotus purpuratus sea urchins were obtained from Pacific BioMarine, and their embryos were cultured to the early pluteus stage in artificial sea water at 15°C. SU-ECM were prepared from them by treatment with nonionic detergent and sterilized by dilution in the appropriate media.
(§2) […] When appropriate, purified bovine plasma fibronectin (Sigma, St. Louis, Mo), purified 120 kDa chymotryptic fragment (Gibco BRL), PHSRN or PHSCN peptides (synthesized at the Biomedical Research Core Facilities of the University of Michigan), or GRGDSP or GRGESP peptides (Gibco BRL) were added to the resuspended cells prior to placement of the cells on SU-ECM. In each well of a plate used for an invasion assay, SU-ECM were placed in 0.5 ml of the appropriate medium, and 0.5ml of the resuspended cells dropped on their exterior surfaces. Invasion assays were incubated 1 to 16 hours prior to scoring. If some circumstances, invasion assays were fixed in phosphate-buffered saline (PBS) with 2% formaldehyde for 5 minutes at room temperature, then rinsed into PBS.
(§3) Invasion assays were coded and scored blindly by microscopic examination under phase contrast at 200- and 400-fold magnification. Each cell contacting an SU-ECM was scored for its position relative to the exterior or interior surfaces. A cell was judged to have invaded if it was located on an interior surface below the focal plane passing through the upper surface of the SU-ECM, but above the focal plane passing through its lower surface. The minimum viability of the cells in each assay was always ascertained at the time of assay by determining the fraction of spread, adherent cells on the bottom of each well scored.
(§4) An invasion frequency is defined as the fraction of cells in contact with basement membranes which were located in their interiors at the time of assay. […] Invasion frequencies were determined multiple times for each cell type assayed. For each type of cell assayed the mean and standard deviation of the invasion frequencies were calculated. […]

[2] = tested on: Normal neonatal keratinocytes; experiment: SU-ECM invasion assay, keratinocytes; type: cell-based; conditions: in the presence of serum, Figure 11
Text: In one example cells for the invasion assay are harvested by rinsing in Hanks' balanced salt solution, followed by brief treatment with 0.25% trypsin, 0.02% EDTA, and pelleting and resuspension in the appropriate medium with or without 5% FCS at a density of about 50,000 cells per ml. When appropriate, purified bovine plasma fibronectin (from Sigma, St. Louis, Mo), purified 120 kDa chymotryptic fragment (Gibco BRL) or PHSRN peptides (synthesized at the Biomedical Research Core Facilities of the University of Michigan) are added to the resuspended cells prior to placement of the cells on SU-ECM. […]
Invasion assays are coded and scored blindly by microscopic examination under phase contrast at 200- and 400-fold magnification. Each cell contacting an SU-ECM is scored for its position relative to the exterior or interior surfaces. […] The minimum viability of the cells in each assay is always ascertained at the time of assay by determining the fraction of spread, adherent cells on the bottom of each well scored.
as §4, with “membranes which are located in” for “membranes which were located in”, “Invasion frequencies are determined multiple” for “Invasion frequencies were determined multiple”

[3] = tested on: normal human mammary epithelial cells; experiment: SU-ECM invasion assay, normal mammary epithelial cells; type: cell-based; conditions: SU-ECM, serum containing environment; Figure 12
Description: as §1, §2, §3, §4

neonatal fibroblasts = experiment: SU-ECM invasion assay, neonatal fibroblasts; type: cell-based, human
Text: In one example cells for the invasion assay are harvested by rinsing in Hanks' balanced salt solution, followed by brief treatment with 0.25% trypsin, 0.02% EDTA, and pelleting and resuspension in the appropriate medium with or without 5% FCS at a density of about 50,000 cells per ml. When appropriate, purified bovine plasma fibronectin (from Sigma, St. Louis, Mo), purified 120 kDa chymotryptic fragment (Gibco BRL) or PHSRN peptides (synthesized at the Biomedical Research Core Facilities of the University of Michigan) are added to the resuspended cells prior to placement of the cells on SU-ECM. In each well of a plate used for an invasion assay, SU-ECM were placed in 0.5 ml of the appropriate medium, and 0.5ml of the resuspended cells dropped on their exterior surfaces. Invasion assays were incubated 1 to 16 hours prior to assay. If some circumstances, invasion assays were fixed in phosphate-buffered saline (PBS) with 2% formaldehyde for 5 minutes at room temperature, then rinsed into PBS.
as §3, with “are” for “were”, “is” for “was”
An invasion frequency is defined as the fraction of cells in contact with basement membranes which are located in their interiors at the time of assay. Thus, an invasion frequency of 1 denotes invasion by 100% of the cells in contact with basement membranes. Invasion frequencies are determined multiple times for each cell type assayed. For each type of cell assayed the mean and standard deviation of the invasion frequencies were calculated.
In this example, the invasiveness of neonatal fibroblasts into an SU-ECM invasion substrate is considered. Experiments were performed under serum-free conditions, or in medium with 10% fetal calf serum (FCS). Neither serum-free medium nor medium containing serum supported fibroblast invasion. However, consistent with the induction of metalloproteinase gene transcription by the 120 kDa fragment of plasma fibronectin (pFn) containing the cell-binding domain, the 120 kDa fragment induced fibroblast invasion in the presence or in the absence of serum. […]

## PHSRN [PHSRN]
[1]
  induction of invasive behavior of human prostate epithelial cells: induces the invasive behaviors
[2]
  maximal invasion percentages for keratinocytes: about 20%
[3]
  induction of invasive behavior of human mammary epithelial cells: induces the invasive behaviors
Neonatal fibroblasts; 10 to 3000 ng per ml, presence or absence of serum, log-linear, Figure 10
  induction of fibroblast invasion of SU-ECM, dose response: able to induce fibroblast invasion
Neonatal fibroblasts; in the presence (10% FCS) or absence of serum, molar concentration equivalent to plasma fibronectin in serum, Figure 9
  induction of fibroblast invasion of SU-ECM: contained all the invasion-stimulatory activity
Neonatal fibroblasts; serum-free SU-ECM
  induction of fibroblast invasion of SU-ECM: induced
